Tested on: CD4+ OTII cells (CD25+Fox3p+ regulatory T cell phenotype)
Assay: Induction of CD4+ regulatory T cells: CD4+ OTII cells transferred into SJL mice, flow cytometry of popliteal lymph nodes
Assay type: in vivo, mouse
Settings: s.c. hind limbs on days 1 and 5, popliteal lymph nodes on day 10
Text: In order to monitor the determine the effect of immunosuppressant attached to synthetic nanocarriers on the development of CD4+ regulatory T cells, CD4+ T cells were purified from the transgenic mouse strain OTII using negative selection by magnetic-activated cell sorting (MACS). OTII mice express a T cell receptor specific for the chicken ovalbumin peptide OVA323-339. Following isolation, 4×10^6 CD4+ OTII cells were transferred into SJL mice congenically expressing the pan-leukocyte marker CD45.1 (Ptprc^a) (SJL-Prprc^a/BoyAiTac).
On day 10, 5 days following the second administration of the indicated treatment, the animlas were sacrified and the popliteal lymph nodes that drain the site of injection were harvested to analyze developmental status and quantify the CD4+ OTII cells that had been transferred into the SJL mice by flow cytometry.

Substance: fOPII.323: free chicken ovalbumin peptide OVA323-339 (KISQAVHAAHAEINEAG; UniProt P01012 323-339, looked up, fragment)
- proportion of transferred OTII cells with regulatory T cell phenotype (CD25+Fox3p+), FIG. 1: detectable but not statisitically significant increase
